Experimental data reported in PMC4601640, “Stability of the Human Hsp90-p50^Cdc37 Chaperone Complex against Nucleotides and Hsp90 Inhibitors, and the Influence of Phosphorylation by Casein Kinase 2” (Molecules, 2015).
“Also recorded” adds a separate entry of the source.

Legend:
[1] = target: T1, ΔHsp90β interaction with GST-p50^Cdc37 (Homo sapiens, UniProt P08238, DEL220-271/E274G/I272G/K273G/K275G); assay: GST pull-down of ΔHsp90β with GST-p50^Cdc37; assay type: binding
T1 construct: human Hsp90β (1-724 Δ220-275); made in house; host or cells: E. coli BL21 Star (DE3) (ΔHsp90β); E. coli BL21 (DE3) (GST-p50Cdc37)
Description: GST pull-down experiments were carried out using 1 mL GST 4 FastFlow resin in 8 mL Flex columns (Kontes). All experiments were performed at room temperature by gravity flow. Loading and wash buffers contained 50 mM Tris pH 8, 50 mM KCl, 5 mM MgCl2, and 5% DMSO. The elution buffer contained an additional 10 mM reduced glutathione. […] The resin was washed with 20 CV wash buffer, and samples were eluted with 2 CV elution buffer. Eluted protein was analysed on 12% SDS-PAGE stained with Coomassie blue for visualization.

[2] = target: T2, hHsp90β-FL (Homo sapiens, UniProt P08238); assay: ITC direct binding to full-length Hsp90β; details: Figure 3
T2 construct: The gene encoding human full-length Hsp90β was subcloned from T47D cell line cDNA; His6 (N); made in house; host or cells: E. coli BL21 Star (DE3)
Description: (§1) Binding of p50^Cdc37 and small molecules to Hsp90 was analyzed using a MicroCal iTC200 titration calorimeter (GE Healthcare). Compounds or p50^Cdc37 were titrated into a solution of Hsp90 using the following concentrations: p50^Cdc37 (200 µM) into Hsp90 (20 µM), nucleotides (600 µM) into Hsp90 (30 µM), inhibitors (300 µM) into Hsp90 (30 µM). […] All experiments were conducted in 50 mM HEPES pH 7.5, 10 mM MgCl2 at 30 °C. For titration of inhibitors, the buffer contained 5% DMSO. […] Generation of heat due to dilution was determined in separate experiments by diluting protein into buffer and subtracting these as blank values for each injection. Corrected heat values were fitted using a nonlinear least squares curve-fitting algorithm (Microcal Origin 7.0) to obtain the stoichiometry (n), binding constants (Ka, Kd), and change in enthalpy for each enzyme-ligand interaction (ΔH).

[3] = target: T3, Hsp90-p50^Cdc37 (Homo sapiens, UniProt P08238); assay: ELISA complex formation, immobilized GST-p50^Cdc37 and Hsp90β, unphosphorylated; assay type: binding
T3 construct: The gene encoding human full-length Hsp90β was subcloned from T47D cell line cDNA; made in house; host or cells: E. coli BL21 Star (DE3) (Hsp90β); E. coli BL21 (DE3) (GST-p50Cdc37)

[4] = target: T4, ΔHsp90-p50^Cdc37 (Homo sapiens, UniProt P08238, DEL220-271/E274G/I272G/K273G/K275G); assay: ELISA complex formation, ΔHsp90; assay type: binding
T4 construct: human Hsp90β (1-724 Δ220-275); made in house; host or cells: E. coli BL21 Star (DE3) (ΔHsp90β); E. coli BL21 (DE3) (GST-p50Cdc37)

[5] = target: (p)Hsp90-(p)p50^Cdc37 (Homo sapiens, UniProt P08238); assay: biochemical
Description: (§2) Phosphorylation of full-length Hsp90β and p50^Cdc37 was performed using purified full-length CK2α. The reaction was carried out in a 2.5 mL volume containing 50 µM Hsp90β or p50^Cdc37, 0.5 µM CK2α, 0.5 mM ATP, 20 mM Tris (pH 7.5), 50 mM KCl, and 10 mM MgCl2, and was incubated for 1 h at 30 °C. Samples were removed for analysis of phosphorylation status, and the proteins were re-buffered into 50 mM HEPES (pH 7.5), 150 mM NaCl, and 1 mM DTT (ELISA), or into 50 mM HEPES (pH 7.5) for ITC, using PD-10 gravity columns (GE Healthcare). Dephosphorylation was performed using 2.5 units of FastAP (alkaline phosphatase from Thermo Scientific) in buffer containing 10 mM Tris (pH 8.0 at 37 °C), 5 mM MgCl2, 100 mM KCl, 0.02% Triton-X 100, and 0.5 mg/mL BSA for 1 h at 37 °C.
(§3) Purified GST-p50^Cdc37 (4 µM) or control (purified GST alone, 4 µM) was added to glutathione-coated 96-well plates (Pierce) in 100 μL protein buffer (50 mM HEPES, pH 7.5, 150 mM NaCl, 10 mM MgCl2, 0.05% Tween-20, and 0.1% BSA) and incubated for 1 h at room temperature (triplicate wells per sample). […] The mixtures were then added to the wells (100 μL per well, in triplicates) and incubated for 1 h at room temperature before washing. The wells were incubated with anti-His6-tag mAb (1 mg/mL stock, Abcam), diluted 1:2000 in antibody buffer (50 mM HEPES pH 7.5, 150 mM NaCl, 10 mM MgCl2, 0.05% Tween-20, and 1% BSA) for 1 h, followed by secondary antibody (horse anti-mouse HRP-conjugated IgG, Cell Signaling Technology), diluted 1:5000 in antibody buffer, for 1.5 h at room temperature. After washing three times with 1× HBS-T and two times with 1× HBS, 200 μL HRP substrate (SigmaFast OPD) was added per well. The plates were incubated at room temperature, and the absorbance was read at 450 nm after 15 min and 30 min using a SpectraMax 340 PC plate reader (Molecular Devices). For dose-response measurements, absorption values were corrected for unspecific binding of Hsp90 to immobilized GST, and the raw data were fit to equation (1), where f(I) is the fraction of complex remaining, [I] is the concentration of the inhibitor, IC50 is the half maximal inhibitory concentration against Hsp90-p50^Cdc37 complex formation, n is the Hill slope coefficient, min is the signal remaining at high inhibitor concentrations and max is the signal of the uninhibited complex. Corrected absorption values (ΔOD) for the uninhibited Hsp90-p50^Cdc37 complex (unphosphorylated and phosphorylated) were in the range of 0.4–1.0. Data were expressed relative to the respective max value of Equation (1). (1) f(I)=min+(max−min)/1+([I]/IC50)^n

[6] = target: (p)Hsp90-p50^Cdc37 (Homo sapiens, UniProt P08238); assay: ELISA complex formation, CK2-phosphorylated Hsp90β
Description: as §2, §3

[7] = target: T5, hHsp90β-N (Homo sapiens, UniProt P08238); assay: ITC direct binding to N-terminal domain of Hsp90β; details: 30 °C, read-out: Observed Kd
T5 construct: human N-terminal Hsp90β (1-219, denoted Hsp90β-N); His6 (N); made in house; host or cells: E. coli BL21 Star (DE3)
Excerpt: The gene encoding human full-length Hsp90β was subcloned from T47D cell line cDNA, and human full-length CK2α was subcloned from MCF7 cell line cDNA, both a kind gift from Dr. Jonathan Lancaster, Moffitt Cancer Center. The genes encoding the deletion mutants human Hsp90α (1-732 Δ226-283), human Hsp90β (1-724 Δ220-275), human N-terminal Hsp90β (1-219, denoted Hsp90β-N), and human full-length p50^Cdc37 (residues 1-378) were synthesized by GeneArt AG with optimized codon usage for E. coli expression. The deleted sections in the two Hsp90 genes were each replaced by four glycine residues. […]
Binding of p50^Cdc37 and small molecules to Hsp90 was analyzed using a MicroCal iTC200 titration calorimeter (GE Healthcare). […] Typically, an initial 0.5 µL injection was followed by 19 injections of 2.2 µL of syringe solution (compound or p50^Cdc37) into a 200 µL protein solution of Hsp90 constantly stirred at 1000 rpm, and data were recorded for 180 s between injections. Generation of heat due to dilution was determined in separate experiments by diluting protein into buffer and subtracting these as blank values for each injection. […]

[8] = target: yHsp82-FL; details: yHsp82-FL with human p50^Cdc37; ref [30]; read-out: Reported Kd; cited from earlier work
[9] = target: T6, hΔHsp90β (Homo sapiens, UniProt P08238, DEL220-271/E274G/I272G/K273G/K275G); assay: ITC direct binding to Hsp90β deletion mutant lacking the charged linker; details: 50 mM HEPES pH 7.5, 10 mM MgCl2, 30 °C, read-out: Observed Kd
T6 construct: human Hsp90β (1-724 Δ220-275); His6 (N); made in house; host or cells: E. coli BL21 Star (DE3)
Excerpt: The gene encoding human full-length Hsp90β was subcloned from T47D cell line cDNA, and human full-length CK2α was subcloned from MCF7 cell line cDNA, both a kind gift from Dr. Jonathan Lancaster, Moffitt Cancer Center. […] The deleted sections in the two Hsp90 genes were each replaced by four glycine residues. Hsp90α and Hsp90β were subcloned into the pET28a vector (Novagen), and p50^Cdc37 was subcloned into a modified pET28a vector containing a maltose-binding protein (MBP) solubility tag and a PreScission protease cleavage site using restriction enzymes BamHI and NotI (Fermentas) and T4 DNA ligase (Invitrogen) following the manufacturers’ instructions. BamHI was substituted with NdeI for full-length Hsp90β. p50^Cdc37 was also subcloned into the pGEX6P-1 vector (GE Healthcare) using the same procedure as above to provide an N-terminal GST-tag for GST pull-down and ELISA experiments. The plasmids were transformed into E. coli BL21 Star (DE3) (Hsp90α and Hsp90β, Invitrogen), Tuner (DE3) (p50^Cdc37 modified pET28a, Novagen), or BL21 (DE3) (p50^Cdc37 pGEX6P-1, Stratagene) expression strains. Transformed cells were grown in LB broth at 37 °C until the OD600 reached 0.4, then the temperature was lowered to 16 °C, and cells were induced with 0.1 mM IPTG at OD600 = 0.5–0.7. Cultures were then grown for 20–24 h before harvesting by centrifugation (30 min at 30,000× g, 4 °C).
as §1

T1 sequence (P08238 with tags, fused parts or gaps DEL220-271/I272G/K273G/E274G/K275G): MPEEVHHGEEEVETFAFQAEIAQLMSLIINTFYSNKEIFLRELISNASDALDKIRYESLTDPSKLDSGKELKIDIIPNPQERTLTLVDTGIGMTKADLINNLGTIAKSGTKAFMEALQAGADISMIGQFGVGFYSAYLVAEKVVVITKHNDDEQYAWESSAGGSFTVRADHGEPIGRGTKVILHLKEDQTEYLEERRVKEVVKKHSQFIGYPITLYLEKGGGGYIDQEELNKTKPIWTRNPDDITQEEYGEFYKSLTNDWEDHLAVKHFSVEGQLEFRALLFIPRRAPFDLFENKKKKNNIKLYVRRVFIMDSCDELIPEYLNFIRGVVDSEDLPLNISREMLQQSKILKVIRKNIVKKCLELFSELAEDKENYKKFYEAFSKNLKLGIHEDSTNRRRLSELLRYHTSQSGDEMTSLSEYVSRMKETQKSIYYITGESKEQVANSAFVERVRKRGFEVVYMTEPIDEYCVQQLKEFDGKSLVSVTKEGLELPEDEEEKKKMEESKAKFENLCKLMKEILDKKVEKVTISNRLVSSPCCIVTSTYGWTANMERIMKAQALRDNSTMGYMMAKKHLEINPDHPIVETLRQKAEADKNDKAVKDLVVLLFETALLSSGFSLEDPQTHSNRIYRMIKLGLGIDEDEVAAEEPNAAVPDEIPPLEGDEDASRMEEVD
Chain of (p)Hsp90-(p)p50^Cdc37 (P08238 whole entry): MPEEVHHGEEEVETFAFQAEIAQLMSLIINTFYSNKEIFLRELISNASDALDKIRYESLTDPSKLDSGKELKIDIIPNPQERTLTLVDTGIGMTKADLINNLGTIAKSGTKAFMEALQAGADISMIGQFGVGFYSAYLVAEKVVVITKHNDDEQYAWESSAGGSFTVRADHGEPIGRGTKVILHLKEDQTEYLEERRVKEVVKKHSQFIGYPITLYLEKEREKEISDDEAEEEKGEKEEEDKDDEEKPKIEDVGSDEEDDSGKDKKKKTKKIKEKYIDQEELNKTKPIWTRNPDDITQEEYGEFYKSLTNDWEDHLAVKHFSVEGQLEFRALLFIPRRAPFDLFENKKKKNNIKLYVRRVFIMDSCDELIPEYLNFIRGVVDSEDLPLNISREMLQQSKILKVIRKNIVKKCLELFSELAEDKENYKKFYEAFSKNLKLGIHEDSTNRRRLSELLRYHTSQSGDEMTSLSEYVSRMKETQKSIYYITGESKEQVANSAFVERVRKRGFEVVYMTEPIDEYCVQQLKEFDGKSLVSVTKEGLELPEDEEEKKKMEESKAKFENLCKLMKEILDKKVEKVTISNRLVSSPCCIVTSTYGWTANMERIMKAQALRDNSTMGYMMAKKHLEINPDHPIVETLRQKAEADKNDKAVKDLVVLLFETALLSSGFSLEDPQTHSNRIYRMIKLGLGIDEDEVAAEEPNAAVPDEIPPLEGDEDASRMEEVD
Chain of (p)Hsp90-p50^Cdc37 (P08238 whole entry, the tested form may be a part): as the sequence (P08238 whole entry) above
T5 sequence (P08238 1-219): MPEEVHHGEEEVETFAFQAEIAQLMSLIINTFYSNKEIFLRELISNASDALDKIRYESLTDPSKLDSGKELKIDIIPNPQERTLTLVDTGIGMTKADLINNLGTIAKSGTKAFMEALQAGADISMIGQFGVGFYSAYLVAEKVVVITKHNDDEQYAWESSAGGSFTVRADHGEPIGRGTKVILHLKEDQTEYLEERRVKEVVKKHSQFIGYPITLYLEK
T4 sequence (P08238 with tags, fused parts or gaps DEL220-271/I272G/K273G/E274G/K275G): as the sequence (P08238 with tags, fused parts or gaps DEL220-271/I272G/K273G/E274G/K275G) above
T6 sequence (P08238 with tags, fused parts or gaps DEL220-271/I272G/K273G/E274G/K275G): as above

Row | Molecule | effect on complex in GST pull-down ([1]; 1 mM nucleotide or 0.1 mM inhibitor, 15 min incubation, SDS-PAGE) | protection of the complex from ADP in GST pull-down competition ([1]; in the presence of ADP, 0.1 mM radicicol) | binding potential towards Hsp90β [2] | IC50 ([3]; ELISA, Hsp90-p50^Cdc37 (unphosphorylated)) [µM] | inhibitory activity against the complex ([3]; unphosphorylated or phosphorylated complex, in vitro) | IC50 [4] [µM] | IC50 [5] [µM] | IC50 [6] [µM] | Kd [7] [µM] | Kd [8] [µM] | Kd [9] [µM]
1 | CC(=O)O[C@@H]1C[C@H]2C(C)(C)C(=O)C=C[C@]2(C)[C@H]2CC[C@@]3(C)[C@H](c4ccoc4)OC(=O)[C@H]4O[C@]43[C@@]21C [Gedunin] | ineffective | had no effect | failed to display binding potential | > 1000 | did not show appreciable inhibitory activity; also recorded: did not affect the interaction of Hsp90 with p50^Cdc37 in vitro | > 1000 | > 1000 | > 1000 |  |  | 
2 | p50^Cdc37: human full-length co-chaperone protein p50^Cdc37 (residues 1-378), unphosphorylated |  |  |  |  |  |  |  |  | 4.4 | 1.5 | 1.1
